Data published in ChEMBL document CHEMBL3627622, “Exploration of labeling by near infrared dyes of the polyproline linker for bivalent-type CXCR4 ligands” (Bioorg Med Chem, 2015).

Target: C-X-C chemokine receptor type 4 (Homo sapiens, UniProt P61073)
Assay: Displacement of fluorescently-labeled-TZ14011 from CXCR4 in human Jurkat cells incubated for 30 mins by fluorescence analysis
Format: cell-based

Chain of C-X-C chemokine receptor type 4 (P61073 whole entry): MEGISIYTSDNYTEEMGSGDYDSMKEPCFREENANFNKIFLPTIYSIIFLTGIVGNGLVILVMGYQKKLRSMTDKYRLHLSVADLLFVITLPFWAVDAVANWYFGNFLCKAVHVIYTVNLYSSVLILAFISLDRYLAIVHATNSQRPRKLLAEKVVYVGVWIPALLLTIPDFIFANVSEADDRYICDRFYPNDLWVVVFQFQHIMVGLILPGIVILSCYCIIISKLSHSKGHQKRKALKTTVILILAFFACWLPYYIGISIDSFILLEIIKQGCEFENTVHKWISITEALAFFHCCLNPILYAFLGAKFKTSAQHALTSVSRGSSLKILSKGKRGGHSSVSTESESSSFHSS

Row | IC50 [nM] | SMILES
1 | 44 | CC(=O)N[C@@H](CCCCNC(=O)CSC[C@H]1NC(=O)[C@H](Cc2ccc3ccccc3c2)NC(=O)[C@H](CCCNC(=N)N)NC(=O)[C@H](CCCNC(=N)N)NC(=O)[C@@H](Cc2ccc(O)cc2)NC1=O)C(=O)N1CCC[C@H]1C(=O)N1CCC[C@H]1C(=O)N1CCC[C@H]1C(=O)N1CCC[C@H]1C(=O)N1CCC[C@H]1C(=O)N1CCC[C@H]1C(=O)N1CCC[C@H]1C(=O)N1CCC[C@H]1C(=O)N1CCC[C@H]1C(=O)N1CCC[C@H]1C(=O)N1CCC[C@H]1C(=O)N1CCC[C@H]1C(=O)N1CCC[C@H]1C(=O)N1CCC[C@H]1C(=O)N1CCC[C@H]1C(=O)N1CCC[C@H]1C(=O)N1CCC[C@H]1C(=O)N1CCC[C@H]1C(=O)N[C@@H](CCCCNC(=O)CS[C@H]1NC(=O)[C@H](Cc2ccc3ccccc3c2)NC(=O)[C@H](CCCNC(=N)N)NC(=O)[C@H](CCCNC(=N)N)NC(=O)[C@@H](Cc2ccc(O)cc2)NC1=O)C(N)=O
2 | 86 | [N-]=[N+]=NCCCCCC(=O)NCCCC(=O)N[C@@H](CCCCNC(=O)CSC[C@H]1NC(=O)[C@H](Cc2ccc3ccccc3c2)NC(=O)[C@H](CCCNC(=N)N)NC(=O)[C@H](CCCNC(=N)N)NC(=O)[C@@H](Cc2ccc(O)cc2)NC1=O)C(=O)N1CCC[C@H]1C(=O)N1CCC[C@H]1C(=O)N1CCC[C@H]1C(=O)N1CCC[C@H]1C(=O)N1CCC[C@H]1C(=O)N1CCC[C@H]1C(=O)N1CCC[C@H]1C(=O)N1CCC[C@H]1C(=O)N1CCC[C@H]1C(=O)N1CCC[C@H]1C(=O)N1CCC[C@H]1C(=O)N1CCC[C@H]1C(=O)N1CCC[C@H]1C(=O)N1CCC[C@H]1C(=O)N1CCC[C@H]1C(=O)N1CCC[C@H]1C(=O)N1CCC[C@H]1C(=O)N1CCC[C@H]1C(=O)N[C@@H](CCCCNC(=O)CS[C@@H]1NC(=O)[C@H](Cc2ccc3ccccc3c2)NC(=O)[C@H](CCCNC(=N)N)NC(=O)[C@H](CCCNC(=N)N)NC(=O)[C@@H](Cc2ccc(O)cc2)NC1=O)C(N)=O
